system: progranulin; experiment: Progranulin induction cellular assay (ELISA of secreted mouse PGRN); format: cell-based; conditions: progranulin induction assay; mouse pMG, primary cortical neurons and BV-2 cell lines named, cell type not given; ELISA-based readout; read-out: EC50
Description: Cellular Assays: Progranulin induction assay. To measure the efficacy of compounds, a progranulin induction cellular assay in mouse primary microglia (pMG), primary cortical neurons, and BV-2 cell lines is used. BV-2 cells are split the day before plating into a 96 well plate format at approximately 80%. Cells should be plated the day before and allowed for 1 hour attachment period and for 16 hour incubation. Levels of progranulin secreted into the cell culture medium or retained in the cell lysate can be quantified using an ELISA-based readout and measurement of secreted mouse PGRN in the medium was assessed by the methodology published by Ghidoni et al. 2012. Standard ELISA kits to measure PGRN are available from vendors such as Adipogen, R&D, and Biovendor.
Table B below presents the results of a progranulin induction assay as described above.

First: O=C([C@H]1C[C@@H]2NC[C@H](C(F)(F)F)O[C@H]2CO1)N1CCc2ccccc2[C@@H]1c1ccc(F)cc1 [Compound 5474, ((S)-1-(4-fluorophenyl)-3,4-dihydroisoquinolin-2(1H)-yl)((3R,4aR,7R,8aS)-3-(trifluoromethyl)octahydropyrano[3,4-b][1,4]oxazin-7-yl)methanone]
Second: O=C([C@H]1C[C@@H]2NC[C@@H](C(F)(F)F)O[C@H]2CO1)N1CCc2ccccc2[C@@H]1c1ccc(F)cc1 [Compound 5473, ((S)-1-(4-fluorophenyl)-3,4-dihydroisoquinolin-2(1H)-yl)((3S,4aR,7R,8aS)-3-(trifluoromethyl)octahydropyrano[3,4-b][1,4]oxazin-7-yl)methanone]
The EC50 of the first is 2.4-fold higher: 1510 nM for the first, 621 nM for the second. The second is the more potent here.

Compared with `N[C@H]1COC(C(=O)N2CCc3ccccc3[C@@H]2c2ccc(F)cc2)C1` (stereo in doubt) [Compound 5012, ((2R,4R)-4-aminotetrahydrofuran-2-yl)((S)-1-(4-fluorophenyl)-3,4-dihydroisoquinolin-2(1H)-yl)methanone], `N[C@@H]1C[C@H](C(=O)N2CCc3ccccc3[C@@H]2c2ccc(F)cc2)OC[C@@H]1O` [Compound 5074, ((2R,4R,5R)-4-amino-5-hydroxytetrahydro-2H-pyran-2-yl)((S)-1-(4-fluorophenyl)-3,4-dihydroisoquinolin-2(1H)-yl)methanone] is 1.8-fold higher in EC50: 125 nM for the first, 230 nM for the second. The first is the more potent here.

First: N[C@@]1(CO)CC[C@@H](C(=O)N2CCc3ccccc3[C@@H]2c2ccc(F)cc2)OC1 [Compound 5214, ((2S,5R)-5-amino-5-(hydroxymethyl)tetrahydro-2H-pyran-2-yl)((S)-1-(4-fluorophenyl)-3,4-dihydroisoquinolin-2(1H)-yl)methanone]
Second: N[C@]1(CO)CC[C@H](C(=O)N2CCc3ccccc3[C@@H]2c2ccc(F)cc2)OC1 [Compound 5216, ((2R,5S)-5-amino-5-(hydroxymethyl)tetrahydro-2H-pyran-2-yl)((S)-1-(4-fluorophenyl)-3,4-dihydroisoquinolin-2(1H)-yl)methanone]
The EC50 of the first is 3.7-fold lower: 80 nM for the first, 295 nM for the second. The first is the more potent here.

First: O=C([C@H]1CCNCCO1)N1CCc2ccccc2[C@@H]1c1ccc(F)cc1F (single isomer, unassigned) [Compound 5263]
Second: O=C([C@H]1CCNCCO1)N1CCc2ccccc2[C@@H]1c1ccc(F)cc1 (single isomer, unassigned) [Compound 5044]
The EC50 of the first is 2.1-fold lower: 78 nM for the first, 163 nM for the second. The first is the more potent here.

Compared with `CS[C@@H]1CO[C@@H](C(=O)N2CCc3ccccc3[C@@H]2c2ccc(F)cc2)C[C@@H]1N` [Compound 5425, ((2R,4S,5S)-4-amino-5-(methylthio)tetrahydro-2H-pyran-2-yl)((S)-1-(4-fluorophenyl)-3,4-dihydroisoquinolin-2(1H)-yl)methanone], `CS[C@H]1CO[C@@H](C(=O)N2CCc3ccccc3[C@@H]2c2ccc(F)cc2)C[C@@H]1N` [Compound 5520, ((2R,4S,5R)-4-amino-5-(methylthio)tetrahydro-2H-pyran-2-yl)((S)-1-(4-fluorophenyl)-3,4-dihydroisoquinolin-2(1H)-yl)methanone] is 46-fold lower in EC50: 186 nM for the first, 4 nM for the second. The second is the more potent here.

Going from `CN[C@@H]1CO[C@@H](C(=O)N2CCc3ccccc3[C@@H]2c2ccc(F)cc2)C[C@@H]1O` [Compound 5431, ((S)-1-(4-fluorophenyl)-3,4-dihydroisoquinolin-2(1H)-yl)((2R,4S,5R)-4-hydroxy-5-(methylamino)tetrahydro-2H-pyran-2-yl)methanone] to `N[C@@H]1C[C@@H](C(=O)N2CCc3ccccc3[C@@H]2c2ccc(F)cc2)OC[C@@H]1O` [Compound 5054, ((2S,4R,5R)-4-amino-5-hydroxytetrahydro-2H-pyran-2-yl)((S)-1-(4-fluorophenyl)-3,4-dihydroisoquinolin-2(1H)-yl)methanone], the EC50 rises from 29 nM to 130 nM (4.5-fold).

Going from `C[C@H]1CN[C@H]2C[C@H](C(=O)N3CCc4ccccc4[C@@H]3c3ccc(F)cc3)OC[C@@H]2O1` [Compound 5471, ((S)-1-(4-fluorophenyl)-3,4-dihydroisoquinolin-2(1H)-yl)((3S,4aR,7R,8aS)-3-methyloctahydropyrano[3,4-b][1,4]oxazin-7-yl)methanone] to `CC[C@@H]1CN[C@H]2C[C@H](C(=O)N3CCc4ccccc4[C@@H]3c3ccc(F)cc3)OC[C@@H]2O1` [Compound 5564, ((3R,4aR,7R,8aS)-3-ethyloctahydropyrano[3,4-b][1,4]oxazin-7-yl)((S)-1-(4-fluorophenyl)-3,4-dihydroisoquinolin-2(1H)-yl)methanone], the EC50 falls from 109 nM to 4 nM (27-fold).

`O=C([C@H]1CC[C@H](NCCO)CO1)N1CCc2ccccc2[C@@H]1c1ccc(F)cc1` [Compound 5034, ((S)-1-(4-fluorophenyl)-3,4-dihydroisoquinolin-2(1H)-yl)((2R,5S)-5-((2-hydroxyethyl)amino)tetrahydro-2H-pyran-2-yl)methanone] and `O=C([C@@H]1CC[C@@H](NCCO)CO1)N1CCc2ccccc2[C@@H]1c1ccc(F)cc1` [Compound 5032, ((S)-1-(4-fluorophenyl)-3,4-dihydroisoquinolin-2(1H)-yl)((2S,5R)-5-((2-hydroxyethyl)amino)tetrahydro-2H-pyran-2-yl)methanone] are within 1.5-fold of each other in EC50: 185 nM for the first, 213 nM for the second.

Compared with `CC[S@@](=O)(=NC)[C@H]1CO[C@@H](C(=O)N2CCc3ccccc3[C@@H]2c2ccc(F)cc2)C[C@@H]1N` (single isomer, unassigned) [Compound 5552], `CCO[C@H]1CO[C@@H](C(=O)N2CCc3ccccc3[C@@H]2c2ccc(F)cc2)C[C@H]1N` [Compound 5248, ((2R,4R,5R)-4-amino-5-ethoxytetrahydro-2H-pyran-2-yl)((S)-1-(4-fluorophenyl)-3,4-dihydroisoquinolin-2(1H)-yl)methanone] is 2.9-fold higher in EC50: 11 nM for the first, 32 nM for the second. The first is the more potent here.

First: C[S@@+2]([NH-])([O-])[C@H]1CO[C@@H](C(=O)N2CCc3ccccc3[C@@H]2c2ccc(F)cc2)C[C@@H]1N (single isomer, unassigned) [Compound 5547]
Second: CC[S@+2]([O-])([N-]C)[C@H]1CO[C@@H](C(=O)N2CCc3ccccc3[C@@H]2c2ccc(F)cc2)C[C@@H]1N (single isomer, unassigned) [Compound 5551]
The EC50 of the first is 2.3-fold higher: 62 nM for the first, 27 nM for the second. The second is the more potent here.

First: CO[C@H]1C[C@H](C(=O)N2CCc3ccccc3[C@@H]2c2ccc(F)cc2)OC[C@H]1N (single isomer, unassigned) [Compound 5082]
Second: CC(C)(C)O[C@H]1CO[C@@H](C(=O)N2CCc3ccccc3[C@@H]2c2ccc(F)cc2)C[C@@H]1N [Compound 5511, ((2R,4S,5R)-4-amino-5-(tert-butoxy)tetrahydro-2H-pyran-2-yl)((S)-1-(4-fluorophenyl)-3,4-dihydroisoquinolin-2(1H)-yl)methanone]
The EC50 of the first is 220-fold higher: 44 nM for the first, 0.2 nM for the second.

First: NC[C@]1(O)CC[C@@H](C(=O)N2CCc3ccccc3[C@@H]2c2ccc(F)cc2)OC1 (single isomer, unassigned) [Compound 5046]
Second: N[C@@]1(CO)CO[C@@H](C(=O)N2CCc3ccccc3[C@@H]2c2ccc(F)cc2)C1 (single isomer, unassigned) [Compound 5071]
The EC50 of the first is 4.1-fold lower: 62 nM for the first, 252 nM for the second. The first is the more potent here.

Going from `O=C([C@@H]1C[C@](O)(CNCCO)CO1)N1CCc2ccccc2[C@@H]1c1ccc(F)cc1` (single isomer, unassigned) [Compound 5039] to `O=C([C@@H]1C[C@H](NCCO)CO1)N1CCc2ccccc2[C@@H]1c1ccc(F)cc1` (single isomer, unassigned) [Compound 5067], the EC50 rises from 357 nM to 767 nM (2.1-fold).

Going from `N[C@H]1C[C@H](C(=O)N2CCc3ccccc3[C@@H]2c2ccc(F)cc2)OC[C@@H]1OCc1ccccc1` [Compound 5531, ((2R,4S,5R)-4-amino-5-(benzyloxy)tetrahydro-2H-pyran-2-yl)((S)-1-(4-fluorophenyl)-3,4-dihydroisoquinolin-2(1H)-yl)methanone] to `CCN[C@H]1C[C@H](C(=O)N2CCc3ccccc3[C@@H]2c2ccc(F)cc2)OC[C@@H]1OCC` [Compound 5510, ((2R,4S,5R)-5-ethoxy-4-(ethylamino)tetrahydro-2H-pyran-2-yl)((S)-1-(4-fluorophenyl)-3,4-dihydroisoquinolin-2(1H)-yl)methanone], the EC50 falls from 88 nM to 2 nM (44-fold).

First: N[C@H]1CO[C@H](C(=O)N2CCc3ccccc3[C@@H]2c2ccc(F)cc2)CC1(F)F [Compound 5060, ((2S,5S)-5-amino-4,4-difluorotetrahydro-2H-pyran-2-yl)((S)-1-(4-fluorophenyl)-3,4-dihydroisoquinolin-2(1H)-yl)methanone]
Second: NC[C@H]1CC[C@@H](C(=O)N2CCc3ccccc3[C@@H]2c2ccc(F)cc2)O1 [Compound 5001, ((2S,5R)-5-(aminomethyl)tetrahydrofuran-2-yl)((S)-1-(4-fluorophenyl)-3,4-dihydroisoquinolin-2(1H)-yl)methanone]
The EC50 of the first is 24-fold higher: 5850 nM for the first, 244 nM for the second. The second is the more potent here.

Going from `N[C@H]1CC[C@H](C(=O)N2CCc3ccccc3[C@@H]2c2ccc(F)cc2F)OC1` [Compound 5255] to `N[C@@H]1CC[C@H](C(=O)N2CCc3ccccc3[C@@H]2c2ccc(F)cc2F)OC1` [Compound 5207], the EC50 rises from 30 nM to 182 nM (6.1-fold).

Compared with `CO[C@H]1C[C@H](C(=O)N2CCc3ccccc3[C@@H]2c2ccc(F)cc2F)OC[C@H]1N` [Compound 5259], `CCN1C(=O)CN[C@H]2C[C@H](C(=O)N3CCc4ccccc4[C@@H]3c3ccc(F)cc3)OC[C@@H]21` [Compound 5536, (4aR,7R,8aS)-4-ethyl-7-((S)-1-(4-fluorophenyl)-1,2,3,4-tetrahydroisoquinoline-2-carbonyl)hexahydro-2H-pyrano[3,4-b]pyrazin-3(4H)-one] is 3.3-fold higher in EC50: 46 nM for the first, 150 nM for the second. The first is the more potent here.

In the case of `CCC[C@@H]1CN[C@H]2C[C@H](C(=O)N3CCc4ccccc4[C@@H]3c3ccc(F)cc3)OC[C@@H]2O1` [Compound 5565], the EC50 is reported as greater than 300 nM.

From patent publication US20230406843A1, “Progranulin Modulators and Methods of Using the Same” (ARKUDA THERAPEUTICS, priority 2020, published 2023)
